Where two headings read alike, the source gives them in different places.
Experiments:
[1] = system: antiserum raised against 9-deoxy-9-methylene PGF2 (KLH Conjugate); experiment: RIA cross-reactivity of antiserum raised against 9-deoxy-9-methylene PGF2, KLH conjugate; format: binding, Albino New Zealand rabbits; conditions: relative to PGE2; ng required to displace 50% of [3H]PGE2
Description: (§1) Five milligrams of KLH-PGE2 mimic conjugate is added to 2.25 ml. of sterile saline (0.9%) and 2.25 ml. of Freund's complete adjuvant and blended. 1.0 ml. of this mixture is injected subcutaneously at 20-30 sites on the flanks of four Albino New Zealand rabbits of 2-4 kg. mass. Each rabbit receives a dose of about 1 mg. On the same day, 1.0 ml. of attenuated pertussis vaccine is injected intramuscularly at four sites on the hindquarters of each rabbit.
(§2) A known amount of PGE-type compound in 0.1 ml. PBSG buffer at pH 7.4±0.2 and 0.1 ml. of the radiolabeled form of the same PGE-type compound (10,000 cpm/0.1 ml. PBSG) are introduced into a 12×75 mm. polypropylene tube. Antiserum (0.1 ml.) against the corresponding mimic is added at a dilution which will bind 50%±3% of the radiolabeled authentic PGE-type compound in the absence of competition from the unlabeled PGE-type compound. The tube is incubated for 1 hour at 25° and then 12-16 hours at 4°. Antibody bound and free fractions are separated with dextrancoated charcoal. Other separation techniques are acceptable.
(§3) The data below show the cross-reactivity of antiserum raised against 9-deoxy-9-methylene PGF2 to various PGE-type compounds, relative to PGE2. Percent cross-reaction is defined as (ng. of PGE2 required to displace 50% of [^3 H] PGE2)/(ng. heterologous PG required to displace 50% of [^3 H] PGE2)×100.

[2] = system: antiserum raised against 9-deoxy-9-methylene PGF2 (BSA Conjugate); experiment: RIA cross-reactivity of antiserum raised against 9-deoxy-9-methylene PGF2, BSA conjugate; format: binding, Albino New Zealand rabbits; conditions: relative to PGE2; ng required to displace 50% of [3H]PGE2
Description: as §1
Antibodies against other PG mimics can be elicited by substituting equal amounts of other conjugates, such as those of preparations 1 through 9, for the KLH-PGE2 mimic conjugate in procedure 1. For example, the following conjugates can be substituted:
as §2, §3

[3] = system: antibodies against PGE1 -BSA conjugate (Example 7); conditions: Table 1 Example 7, conjugate PGE1 -BSA, PGE1 = 100; cited from earlier work
[4] = system: antibodies against PGE1 -BSA conjugate (Example 4); conditions: Table 1 Example 4, conjugate PGE1 -BSA, PGE1 = 100; cited from earlier work
[5] = system: antibodies against PGE1 -BSA conjugate (Example 6); conditions: Table 1 Example 6, conjugate PGE1 -BSA, PGE1 = 100; cited from earlier work
[6] = system: antibodies against PGE1 -poly-1-lysine conjugate; conditions: Table 1 Example 2, conjugate PGE1 -poly-1-lysine, PGE1 = 100; cited from earlier work
[7] = system: antibodies against PGE1 -BSA conjugate (Example 5); conditions: Table 1 Example 5, conjugate PGE1 -BSA, PGE1 = 100; cited from earlier work
[8] = system: antibodies against PGE2 -BSA conjugate (Example 1); conditions: Table II Example 1, conjugate PGE2 -BSA, PGE2 = 100; cited from earlier work
[9] = system: antibodies against PGE2 -BSA conjugate (Example 3); conditions: Table II Example 3, conjugate PGE2 -BSA, PGE2 = 100; cited from earlier work
[10] = system: antibodies against PGE2 -hen gamma globulin conjugate; conditions: Table II Example 4, conjugate PGE2 -hen gamma globulin, PGE2 = 100; cited from earlier work
[11] = system: antibodies against PGE2 -BSA conjugate (Example 5); conditions: Table II Example 5, conjugate PGE2 -BSA, PGE2 = 100, cited from earlier work
[12] = system: antibodies against PGE1 -porcine gamma globulin conjugate; conditions: Table 1 Example 3, conjugate PGE1 -porcine gamma globulin, PGE1 = 100; cited from earlier work
[13] = system: antibodies against PGE2 -KLH conjugate; conditions: Table II Example 2, conjugate PGE2 -KLH, PGE2 = 100; cited from earlier work
[14] = system: antibodies against PGE1 -thyroglobulin conjugate; conditions: Table 1 Example 1, conjugate PGE1 -thyroglobulin, PGE1 = 100; cited from earlier work
[15] = aqueous solution at room temperature; cited from earlier work

Compound: CCCCC[C@H](O)/C=C/[C@@H]1[C@@H](CC(=O)CCCCC(=O)O)[C@@H](O)C[C@H]1O [6-keto-PGF1 α]
- % Cross-Reaction KLH Conjugate [1]: 0.10%
- % Cross-Reaction BSA Conjugate [2]: 0.50%

Compound: C=C1C[C@@H](O)[C@H](/C=C/[C@@H](O)CCCCC)[C@H]1C/C=C\CCCC(=O)O [9-deoxy-9-methylene PGF2, 9-deoxy-9-methylene-PGF2]
- % Cross-Reaction KLH Conjugate [1]: 100%
- % Cross-Reaction BSA Conjugate [2]: 100%

Compound: CCCCCC(=O)CC[C@H]1[C@H](O)CC(=O)[C@@H]1C/C=C\CCCC(=O)O [13,14-dihydro-15-keto-PGE2, 13,14-dihydro-15-keto-PGE]
- % Cross-Reaction KLH Conjugate [1]: 0.03%
- % Cross-Reaction BSA Conjugate [2]: 0.2%

Compound: CCCCCC(=O)CC[C@@H]1[C@@H](C/C=C\CCCC(=O)O)[C@@H](O)C[C@H]1O [13,14-dihydro-15-keto-PGF2 α]
- % Cross-Reaction KLH Conjugate [1]: 0.10%
- % Cross-Reaction BSA Conjugate [2]: 0.01%

Compound: CCCCC[C@H](O)CC[C@H]1[C@H](O)CC(=O)[C@@H]1C/C=C\CCCC(=O)O [13,14-dihydro-PGE2]
- % Cross-Reaction KLH Conjugate [1]: 1.6%
- % Cross-Reaction BSA Conjugate [2]: 3.6%

Compound: CCCCC[C@H](O)CC[C@@H]1[C@@H](C/C=C\CCCC(=O)O)[C@@H](O)C[C@H]1O [13,14-dihydro-PGF2 α]
- % Cross-Reaction KLH Conjugate [1]: 0.34%
- % Cross-Reaction BSA Conjugate [2]: 0.2%

Compound: CCCCCC(=O)/C=C/[C@H]1[C@H](O)CC(=O)[C@@H]1C/C=C\CCCC(=O)O [15-keto-PGE2]
- % Cross-Reaction KLH Conjugate [1]: 0.03%
- % Cross-Reaction BSA Conjugate [2]: 2.5%

Compound: CCCCCC(=O)/C=C/[C@@H]1[C@@H](C/C=C\CCCC(=O)O)[C@@H](O)C[C@H]1O [15-keto-PGF2 α]
- % Cross-Reaction KLH Conjugate [1]: 0.01%
- % Cross-Reaction BSA Conjugate [2]: 0.2%

Compound: CCCCC[C@H](O)/C=C/[C@H]1C=CC(=O)[C@@H]1CCCCCCC(=O)O [PGA1]
- % Cross Reaction [3]: 6%
- % Cross Reaction [4]: 100%
- % Cross Reaction [5]: 10,000%
- % Cross Reaction [6]: 220%
- % Cross Reaction [7]: 25%
- % Cross Reaction [8]: 7%
- % Cross-Reaction KLH Conjugate [1]: 0.08%
- % Cross-Reaction BSA Conjugate [2]: 4.9%
- % Cross Reaction [9]: 200%

Compound: CCCCC[C@H](O)/C=C/[C@H]1C=CC(=O)[C@@H]1C/C=C\CCCC(=O)O [PGA2]
- % Cross Reaction [4]: 100%
- % Cross Reaction [5]: 1000%
- % Cross Reaction [6]: 440%
- % Cross Reaction [7]: 10%
- % Cross Reaction [8]: 7%
- % Cross-Reaction KLH Conjugate [1]: 0.75%
- % Cross-Reaction BSA Conjugate [2]: 2.8%
- % Cross Reaction [10]: 3%
- % Cross Reaction [9]: 400%
- % Cross Reaction [11]: 550%
- % Cross Reaction ([11]; listed as A2): recognized preferentially

Compound: CCCCC[C@H](O)/C=C/C1=C(CCCCCCC(=O)O)C(=O)CC1 [PGB1]
- % Cross Reaction [3]: 66%
- % Cross Reaction [5]: 100,000%
- % Cross Reaction [6]: 31,000%
- % Cross-Reaction KLH Conjugate [1]: 0.005%
- % Cross-Reaction BSA Conjugate [2]: 0.1%
- % Cross Reaction [12]: 10%

Compound: CCCCC[C@H](O)/C=C/C1=C(C/C=C\CCCC(=O)O)C(=O)CC1 [PGB2]
- % Cross Reaction [4]: 100%
- % Cross Reaction [5]: 50,000%
- % Cross Reaction [6]: 8,500%
- % Cross Reaction [8]: 7%
- % Cross-Reaction KLH Conjugate [1]: 0.009%
- % Cross-Reaction BSA Conjugate [2]: 0.0%
- % Cross Reaction [11]: 580%
- % Cross Reaction ([11]; listed as B2): recognized preferentially

Compound: CCCCC[C@H](O)/C=C/[C@H]1C(=O)C[C@H](O)[C@@H]1CCCCCCC(=O)O [PGD1]
- % Cross-Reaction KLH Conjugate [1]: 0.02%
- % Cross-Reaction BSA Conjugate [2]: 4.9%

Compound: CCCCC[C@H](O)/C=C/[C@H]1C(=O)C[C@H](O)[C@@H]1C/C=C\CCCC(=O)O [PGD2]
- % Cross-Reaction KLH Conjugate [1]: 0.02%
- % Cross-Reaction BSA Conjugate [2]: 10.0%

Compound: CCCCC[C@H](O)/C=C/[C@H]1[C@H](O)CC(=O)[C@@H]1CCCCCCC(=O)O [PGE1]
- % Cross Reaction [3]: 100%
- % Cross Reaction [4]: 100%
- % Cross Reaction [5]: 100%
- % Cross Reaction [6]: 100%
- % Cross Reaction [7]: 100%
- % Cross Reaction [8]: 10%
- % Cross-Reaction KLH Conjugate [1]: 90%
- % Cross-Reaction BSA Conjugate [2]: 100%
- % Cross Reaction [13]: 110%
- % Cross Reaction [14]: 100%
- % Cross Reaction [10]: 15%
- % Cross Reaction [9]: 73%
- % Cross Reaction [11]: 55%
- % Cross Reaction [12]: 100%

Compound: CCCCC[C@H](O)/C=C/[C@H]1[C@H](O)CC(=O)[C@@H]1C/C=C\CCCC(=O)O [PGE2, prostaglandin E2]
- % Cross Reaction [4]: 100%
- % Cross Reaction [5]: 90%
- % Cross Reaction [6]: 10%
- % Cross Reaction [8]: 100%
- % Cross Reaction [13]: 100%
- % Cross Reaction [14]: 20%
- % Cross Reaction [10]: 100%
- % Cross Reaction [9]: 100%
- % Cross Reaction [11]: 100%

Compound: CCCCC[C@H](O)/C=C/[C@@H]1[C@@H](CCCCCCC(=O)O)[C@H](O)C[C@H]1O [PGF1 β]
- % Cross-Reaction KLH Conjugate [1]: 0.30%
- % Cross-Reaction BSA Conjugate [2]: 5.0%

Compound: CCCCC[C@H](O)/C=C/[C@@H]1[C@@H](C/C=C\CCCC(=O)O)[C@@H](O)C[C@H]1O [PGF2 α]
- % Cross-Reaction KLH Conjugate [1]: 0.20%
- % Cross-Reaction BSA Conjugate [2]: 1.5%

Compound: CCCCC[C@H](O)/C=C/[C@@H]1[C@@H](C/C=C\CCCC(=O)O)[C@H](O)C[C@H]1O [PGF2 β]
- % Cross-Reaction KLH Conjugate [1]: 3.0%
- % Cross-Reaction BSA Conjugate [2]: 4.4%

Compound: CCCCC[C@H](O)/C=C/[C@@H]1[C@@H](C/C=C\CCCC(=O)O)[C@@H]2C[C@H]1OO2 [PGH2]
- half-life [15]: approximately five

Compound: PGB3
- % Cross Reaction [8]: 7%
- % Cross Reaction [9]: 62%

Compound: PGE1 α
- % Cross-Reaction KLH Conjugate [1]: 0.09%
- % Cross-Reaction BSA Conjugate [2]: 2.9%
